These results are taken from paper PMC10743726, “Preclinical Evaluation of a Novel High-Affinity Radioligand [^99mTc]Tc-BQ0413 Targeting Prostate-Specific Membrane Antigen (PSMA)” (International Journal of Molecular Sciences, 2023).

By Kd is commonly meant the concentration at which binding is half-saturated.

The test system of series [1] is PSMA-positive PC3-pip xenografts. Nature of the series: Biodistribution in PC3-pip tumor-bearing mice. The settings on record: 40 pmol/mouse. The method, then: All in vivo experiments were carried out on BALB/c nu/nu or NMRI mice purchased from Scanbur A/S (Sollentuna, Sweden). All animal studies were approved by the Ethics Committee for Animal Research in Uppsala (Sweden), following the national legislation on the protection of laboratory animals (permit 5.8.18-00473/2021, approved 26 February 2021). Prostate cancer xenografts expressing PSMA were established in BALB/c nu/nu mice via subcutaneous injection of PC3-pip cell suspension in PBS (10^7 cells/animal in 100 µL). For in vivo specificity control, 10^7 cells/animal PSMA-negative SKOV-3 or PC-3 cells were implanted. […] Four mice per data point were used in in vivo experiments; two mice per data point were used in SPECT/CT (^99mTc-labeled BQ0413) and PET/CT (^68Ga-labeled PSMA-11) imaging experiments.
Each mouse was intravenously injected with 40 pmol of [^99mTc]Tc-BQ0413 (60 kBq; mass of injected compound was adjusted with unlabeled tracer). The mice were euthanized after lethal intraperitoneal injection of ketamine/xylazine followed by exsanguination 1, 3, and 6 h pi. The organs of interest were collected, weighed, and measured for their activity content using the gamma counter. The uptake activity in organs was calculated as the percentage of injected activity per gram (%IA/g) for blood, salivary gland, lungs, liver, spleen, pancreas, stomach, small intestine, kidneys, tumor, muscle, and bone tissue and as %IA for the remaining carcass and the rest of the intestines with content.
Animals were euthanized, organs were collected, and activity uptake was measured according to the protocol described above.

For the next series, the target named is PSMA. The settings on record: read-out: Equilibrium Dissociation Constant, KD; cited from earlier work.

`O=C([O-])CN(CCN(CC(=O)[O-])Cc1cc(CCC(=O)NCCCCCC(=O)NCCCC[C@H](NC(=O)N[C@@H](CCC(=O)O)C(=O)O)C(=O)O)ccc1[O-])Cc1cc(CCC(=O)O)ccc1[O-].[68Ga+3].[OH3+]` [[^68Ga]Ga-PSMA-11]: in series [1] (1 h pi), the “Activity in GI tract (with content)” value came out at 1.6 ± 0.3 %IA/sample, the Tumor-to-blood ratio stood at 26 ± 9, the Tumor-to-bone ratio was found to be 34 ± 7 and the Tumor-to-kidneys ratio was 0.09 ± 0.02. In addition, in series [1] (1 h pi), the Tumor-to-liver ratio is given as 30 ± 14, the Tumor-to-lungs ratio is on record as 7 ± 2, the Tumor-to-muscle ratio is 38 ± 11 and the Tumor-to-pancreas ratio was 15 ± 3. For the same compound, in series [1] (1 h pi), the Tumor-to-salivary gland ratio is 5 ± 1, the Tumor-to-small intestine ratio came out at 42 ± 14, the Tumor-to-spleen ratio amounted to 0.7 ± 0.2 and the Tumor-to-stomach ratio amounted to 29 ± 11. Moreover, in series [1] (1 h pi), the Uptake in blood is recorded as 0.8 ± 0.1 %IA/g, the Uptake in bone came out at 0.60 ± 0.06 %IA/g, the Uptake in kidneys is 226 ± 40 %IA/g and the Uptake in liver amounted to 0.7 ± 0.2 %IA/g. In addition, in series [1] (1 h pi), the Uptake in lungs was determined as 3.2 ± 0.6 %IA/g, the Uptake in muscle turned out to be 0.54 ± 0.08 %IA/g, the Uptake in pancreas was found to be 1.3 ± 0.2 %IA/g and the “Uptake in salivary gland” value is 4.4 ± 0.8 %IA/g. Besides, in series [1] (1 h pi), the “Uptake in small intestine” value stood at 0.5 ± 0.1 %IA/g, the Uptake in spleen is given as 28 ± 4 %IA/g, the Uptake in stomach turned out to be 0.8 ± 0.3 %IA/g and the Uptake in tumor was determined as 20 ± 3 %IA/g. The compound also gave an Uptake in tumor in series [1] (3 h pi) of 20 ± 3 %IA/g. For the same compound, the dissociation constant Kd on PSMA was 0.5 ± 0.2 nM.

Regarding [^177Lu]Lu-PSMA-617, the Kd on PSMA is 0.24 nM.
